Calls of active or inactive are those of the source. No cut-off for these calls is given here.
What was measured:
[1] = molecular target: Serine/threonine-protein kinase 36 (Homo sapiens, UniProt Q9NRP7); assay: Binding affinity to wild-type human partial length STK36 (M1 to T271 residues) expressed in bacterial expression system by active-site directed competition binding assay based Kinomescan method
[2] = Toxicity in zebrafish embryos assessed as induction of heart edema by measuring unaffected embryos level at 14 uM after 72 hrs (reference value: 100%); format: tissue-based, Danio rerio; conditions: in vivo
[3] = Toxicity in zebrafish embryos assessed as induction of general edema by measuring unaffected embryos level at 14 uM after 72 hrs (reference value: 100%); design: species or system Danio rerio; conditions: in vivo
[4] = Toxicity in zebrafish embryos assessed as induction of heart edema by measuring unaffected embryos level at 1.4 uM after 72 hrs (reference value: 100%); format: tissue-based, Danio rerio; conditions: in vivo
[5] = molecular target: Mitogen-activated protein kinase kinase kinase 11 (Homo sapiens, UniProt Q16584); assay: Binding affinity to wild-type human partial length MLK3 (I77 to W399 residues) expressed in bacterial expression system assessed as residual binding level at 10 uM by active-site directed competition binding assay based Kinomescan method relative to control
Mitogen-activated protein kinase kinase kinase 11, sequence (Q16584 whole entry, looked up, the tested form may be a part): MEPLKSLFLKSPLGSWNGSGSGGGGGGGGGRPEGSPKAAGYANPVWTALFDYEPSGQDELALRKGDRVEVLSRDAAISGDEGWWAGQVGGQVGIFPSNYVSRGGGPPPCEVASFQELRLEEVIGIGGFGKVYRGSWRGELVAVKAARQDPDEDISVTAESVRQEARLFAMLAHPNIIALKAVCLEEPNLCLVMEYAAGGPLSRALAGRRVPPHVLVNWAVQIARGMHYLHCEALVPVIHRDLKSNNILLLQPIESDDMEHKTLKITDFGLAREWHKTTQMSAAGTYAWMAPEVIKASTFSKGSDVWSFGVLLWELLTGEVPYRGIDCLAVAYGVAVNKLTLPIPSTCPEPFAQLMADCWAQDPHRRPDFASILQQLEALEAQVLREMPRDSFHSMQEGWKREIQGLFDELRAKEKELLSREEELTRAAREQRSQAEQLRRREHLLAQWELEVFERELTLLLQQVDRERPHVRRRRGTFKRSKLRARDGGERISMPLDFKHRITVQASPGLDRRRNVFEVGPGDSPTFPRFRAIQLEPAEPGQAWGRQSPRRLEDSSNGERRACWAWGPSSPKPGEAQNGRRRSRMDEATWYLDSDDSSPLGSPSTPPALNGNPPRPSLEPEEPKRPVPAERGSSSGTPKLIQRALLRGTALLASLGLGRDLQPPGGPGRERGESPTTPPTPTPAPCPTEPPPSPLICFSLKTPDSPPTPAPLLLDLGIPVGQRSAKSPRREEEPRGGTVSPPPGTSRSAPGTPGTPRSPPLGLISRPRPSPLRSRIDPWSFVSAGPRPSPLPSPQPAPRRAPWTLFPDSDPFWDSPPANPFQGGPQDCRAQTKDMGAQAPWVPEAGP

HepG2 = assay: Cytotoxicity in human HepG2 cells assessed as reduction in cell viability incubated for 72 hrs by SRB assay; conditions: HepG2, 72 h
[6] = molecular target: 3',5'-cyclic-AMP phosphodiesterase 4D (Homo sapiens) (UniProt Q08499); assay: Inhibition of human recombinant phosphodiesterase type 4D2 using [3H]cAMP and cAMP incubated for 20 mins by scintillation counting method
MDA-MB-231 = assay: Cytotoxicity in human MDA-MB-231 cells assessed as reduction in cell viability incubated for 72 hrs by SRB assay; conditions: MDA-MB-231, 72 h
[7] = Toxicity in zebrafish embryos assessed as induction of heart edema by measuring unaffected embryos level at 0.1 uM after 72 hrs (reference value: 100%); format: tissue-based, Danio rerio; conditions: in vivo
[8] = Unbound fraction in mouse plasma at 5 uM incubated for 6 hrs at 37 degC by LC-MS analysis based equilibrium dialysis; format: ADME, cell-free
[9] = molecular target: Serine/threonine-protein kinase 17A (Homo sapiens) (UniProt Q9UEE5); assay: Binding affinity to wild-type human partial length DRAK1 (R32 to E363 residues) expressed in bacterial expression system assessed as residual binding level at 10 uM by active-site directed competition binding assay based Kinomescan method relative to control
[10] = Toxicity in zebrafish embryos assessed as induction of necrosis by measuring unaffected embryos level at 14 uM after 72 hrs (reference value: 100%); design: species or system Danio rerio; conditions: in vivo
JIMT-1 = assay: Cytotoxicity in human JIMT1 cells assessed as reduction in cell viability incubated for 72 hrs by SRB assay; conditions: JIMT-1, 72 h
PBMC = assay: Cytotoxicity in human PBMC assessed as reduction in cell viability incubated for 72 hrs by SRB assay; format: cell-based
[11] = molecular target: T1, Mitogen-activated protein kinase kinase kinase kinase 2 (Homo sapiens) (UniProt Q12851); assay: Inhibition of GCK (unknown origin) assessed as residual enzyme activity at 50 uM by [33P]-ATP filter binding kinase assay relative to control
T1 sequence (whole entry): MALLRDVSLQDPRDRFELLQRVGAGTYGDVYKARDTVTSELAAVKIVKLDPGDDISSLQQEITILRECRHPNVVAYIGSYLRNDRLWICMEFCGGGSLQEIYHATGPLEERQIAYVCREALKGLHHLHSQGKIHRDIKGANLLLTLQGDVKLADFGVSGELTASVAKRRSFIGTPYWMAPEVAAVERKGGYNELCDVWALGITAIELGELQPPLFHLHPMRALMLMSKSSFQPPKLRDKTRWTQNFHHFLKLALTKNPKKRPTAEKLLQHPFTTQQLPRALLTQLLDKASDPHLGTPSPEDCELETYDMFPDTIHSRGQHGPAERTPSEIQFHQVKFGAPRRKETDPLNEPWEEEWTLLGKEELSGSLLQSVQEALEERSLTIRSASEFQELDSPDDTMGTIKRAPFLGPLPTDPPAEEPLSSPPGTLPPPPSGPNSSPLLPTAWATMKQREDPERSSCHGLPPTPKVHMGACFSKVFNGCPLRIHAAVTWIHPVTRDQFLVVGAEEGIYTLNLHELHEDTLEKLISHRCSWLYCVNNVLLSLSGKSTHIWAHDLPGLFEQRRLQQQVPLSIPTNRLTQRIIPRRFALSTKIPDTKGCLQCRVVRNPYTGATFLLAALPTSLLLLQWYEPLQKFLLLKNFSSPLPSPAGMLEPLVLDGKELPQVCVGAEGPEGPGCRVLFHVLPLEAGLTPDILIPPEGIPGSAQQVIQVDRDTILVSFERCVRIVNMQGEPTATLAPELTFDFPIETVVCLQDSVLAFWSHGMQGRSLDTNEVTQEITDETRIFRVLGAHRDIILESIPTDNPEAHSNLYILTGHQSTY

[12] = Toxicity in zebrafish embryos assessed as induction of necrosis by measuring unaffected embryos level at 1.4 uM after 72 hrs (reference value: 100%); design: species or system Danio rerio; conditions: in vivo
Aurora kinase B = Aurora kinase B (Homo sapiens, UniProt Q96GD4); assay: Binding affinity to wild-type human partial length AURKB (D25 to A303 residues) expressed in mammalian expression system assessed as residual binding level at 10 uM by active-site directed competition binding assay based Kinomescan method relative to control
[13] = molecular target: NUAK family SNF1-like kinase 1 (Homo sapiens) (UniProt O60285); assay: Inhibition of NUAK1 (unknown origin) by assessed as residual enzyme activity at 1 uM by [33P]-ATP filter binding kinase assay relative to control
NUAK family SNF1-like kinase 1 (Homo sapiens), sequence (O60285 whole entry): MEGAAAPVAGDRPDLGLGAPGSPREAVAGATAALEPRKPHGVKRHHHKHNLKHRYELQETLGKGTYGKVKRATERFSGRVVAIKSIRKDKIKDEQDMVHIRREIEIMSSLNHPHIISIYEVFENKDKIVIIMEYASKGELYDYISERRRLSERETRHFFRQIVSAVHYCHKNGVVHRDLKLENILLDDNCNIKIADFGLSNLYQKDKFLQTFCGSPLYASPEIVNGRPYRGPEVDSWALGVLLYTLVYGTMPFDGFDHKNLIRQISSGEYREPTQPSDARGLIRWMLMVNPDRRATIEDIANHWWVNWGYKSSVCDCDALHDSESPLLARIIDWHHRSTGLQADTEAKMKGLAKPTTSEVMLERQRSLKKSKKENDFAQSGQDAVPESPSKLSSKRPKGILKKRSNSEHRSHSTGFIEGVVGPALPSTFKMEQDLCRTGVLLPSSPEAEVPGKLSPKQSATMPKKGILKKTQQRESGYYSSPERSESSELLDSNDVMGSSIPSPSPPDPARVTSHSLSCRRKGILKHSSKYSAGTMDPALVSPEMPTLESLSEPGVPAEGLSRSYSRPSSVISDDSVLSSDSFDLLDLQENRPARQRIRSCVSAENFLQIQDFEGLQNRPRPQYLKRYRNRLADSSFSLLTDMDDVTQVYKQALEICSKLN

[14] = Toxicity in zebrafish embryos at 0.1 to 1396 uM after 72 hrs; design: species or system Danio rerio; conditions: in vivo, read-out: LD50
[15] = Toxicity in zebrafish embryos assessed as survival at 14 uM after 72 hrs (reference value: 95%); design: species or system Danio rerio; conditions: in vivo
[16] = Toxicity in zebrafish embryos assessed as induction of tail degeneration by measuring unaffected embryos level at 0.1 uM after 72 hrs (reference value: 100%); format: tissue-based, Danio rerio; conditions: in vivo
BT-20 = assay: Cytotoxicity in human BT20 cells assessed as reduction in cell viability incubated for 72 hrs by SRB assay; conditions: BT-20, 72 h
[17] = molecular target: Non-receptor tyrosine-protein kinase TYK2 (Homo sapiens, UniProt P29597); assay: Binding affinity to wild-type human partial length TYK2 JH2 domain-pseudokinase expressed in mammalian expression system by active-site directed competition binding assay based Kinomescan method
Non-receptor tyrosine-protein kinase TYK2, sequence (P29597 whole entry, the tested form may be a part): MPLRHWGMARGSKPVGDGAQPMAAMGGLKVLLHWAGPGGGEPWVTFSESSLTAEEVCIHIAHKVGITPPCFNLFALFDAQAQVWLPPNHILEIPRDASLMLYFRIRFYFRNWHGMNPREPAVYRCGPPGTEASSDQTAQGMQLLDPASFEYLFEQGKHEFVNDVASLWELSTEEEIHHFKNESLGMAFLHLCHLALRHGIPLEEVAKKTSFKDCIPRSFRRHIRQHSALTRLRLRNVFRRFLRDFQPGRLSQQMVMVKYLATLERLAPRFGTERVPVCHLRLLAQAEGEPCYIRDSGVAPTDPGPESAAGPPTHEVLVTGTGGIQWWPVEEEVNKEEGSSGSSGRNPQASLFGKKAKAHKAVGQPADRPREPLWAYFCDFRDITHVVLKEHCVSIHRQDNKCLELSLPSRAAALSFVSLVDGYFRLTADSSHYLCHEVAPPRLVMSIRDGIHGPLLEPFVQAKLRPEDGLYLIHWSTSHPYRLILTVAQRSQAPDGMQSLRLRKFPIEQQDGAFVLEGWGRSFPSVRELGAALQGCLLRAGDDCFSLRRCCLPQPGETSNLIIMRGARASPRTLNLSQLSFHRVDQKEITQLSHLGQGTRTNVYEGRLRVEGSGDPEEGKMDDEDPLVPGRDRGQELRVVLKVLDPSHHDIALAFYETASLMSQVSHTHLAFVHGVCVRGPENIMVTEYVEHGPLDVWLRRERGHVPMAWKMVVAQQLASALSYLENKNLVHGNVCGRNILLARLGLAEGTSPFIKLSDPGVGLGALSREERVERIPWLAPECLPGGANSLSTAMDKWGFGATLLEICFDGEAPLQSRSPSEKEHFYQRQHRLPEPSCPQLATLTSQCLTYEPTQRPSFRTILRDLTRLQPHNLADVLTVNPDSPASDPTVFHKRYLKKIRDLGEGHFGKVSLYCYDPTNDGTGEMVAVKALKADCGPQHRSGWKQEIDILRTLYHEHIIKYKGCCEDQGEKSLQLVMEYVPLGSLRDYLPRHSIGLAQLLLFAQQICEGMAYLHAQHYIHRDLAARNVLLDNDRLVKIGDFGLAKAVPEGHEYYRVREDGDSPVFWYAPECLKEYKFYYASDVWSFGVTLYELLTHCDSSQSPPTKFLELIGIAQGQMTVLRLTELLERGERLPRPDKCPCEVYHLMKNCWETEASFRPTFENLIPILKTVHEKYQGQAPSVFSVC

[18] = Stability in human plasma assessed as parent compound remaining level at 5 uM incubated for 1 hr by LC-MS analysis; format: ADME, cell-free; conditions: read-out: Stability
[19] = molecular target: Dual specificity tyrosine-phosphorylation-regulated kinase 1A (Homo sapiens, UniProt Q13627); assay: Binding affinity to wild-type human partial length DYRK1A (H129 to S509 residues) expressed in mammalian expression system assessed as residual binding level at 10 uM by active-site directed competition binding assay based Kinomescan method relative to control
[20] = molecular target: Mitogen-activated protein kinase kinase kinase 9 (Homo sapiens, UniProt P80192); assay: Inhibition of MLK1 (unknown origin) assessed as residual enzyme activity at 5 uM by [33P]-ATP filter binding kinase assay relative to control
Mitogen-activated protein kinase kinase kinase 9, sequence (P80192 whole entry, looked up): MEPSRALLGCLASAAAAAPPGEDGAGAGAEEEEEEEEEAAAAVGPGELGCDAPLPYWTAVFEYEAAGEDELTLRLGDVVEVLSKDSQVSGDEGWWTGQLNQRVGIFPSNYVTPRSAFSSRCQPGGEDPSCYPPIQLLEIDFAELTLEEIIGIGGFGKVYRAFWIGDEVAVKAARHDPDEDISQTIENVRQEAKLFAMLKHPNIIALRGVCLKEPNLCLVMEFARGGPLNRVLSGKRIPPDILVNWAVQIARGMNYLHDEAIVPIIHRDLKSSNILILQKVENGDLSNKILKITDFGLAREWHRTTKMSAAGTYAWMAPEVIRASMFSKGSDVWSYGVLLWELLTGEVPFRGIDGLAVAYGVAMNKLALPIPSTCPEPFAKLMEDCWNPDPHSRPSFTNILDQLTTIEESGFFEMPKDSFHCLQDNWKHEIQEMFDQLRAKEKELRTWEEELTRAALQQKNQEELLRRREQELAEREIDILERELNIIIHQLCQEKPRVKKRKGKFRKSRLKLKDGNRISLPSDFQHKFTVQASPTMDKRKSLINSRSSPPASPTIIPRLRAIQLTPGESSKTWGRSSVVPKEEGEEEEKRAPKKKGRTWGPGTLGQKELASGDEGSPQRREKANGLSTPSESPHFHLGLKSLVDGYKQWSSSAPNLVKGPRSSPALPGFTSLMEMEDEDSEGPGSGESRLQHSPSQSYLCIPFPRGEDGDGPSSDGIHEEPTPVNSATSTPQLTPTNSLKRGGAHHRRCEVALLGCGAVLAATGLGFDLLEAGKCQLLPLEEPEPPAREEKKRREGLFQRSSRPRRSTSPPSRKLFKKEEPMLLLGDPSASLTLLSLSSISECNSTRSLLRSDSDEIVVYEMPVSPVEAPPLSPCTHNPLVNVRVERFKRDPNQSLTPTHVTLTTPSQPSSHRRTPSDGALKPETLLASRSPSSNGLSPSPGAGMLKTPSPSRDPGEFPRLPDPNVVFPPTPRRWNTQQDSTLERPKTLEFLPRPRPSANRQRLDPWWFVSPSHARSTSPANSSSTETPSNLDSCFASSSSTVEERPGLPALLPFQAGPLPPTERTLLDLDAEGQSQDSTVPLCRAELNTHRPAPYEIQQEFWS

Serine/threonine-protein kinase 36, sequence (Q9NRP7 whole entry, the tested form may be a part): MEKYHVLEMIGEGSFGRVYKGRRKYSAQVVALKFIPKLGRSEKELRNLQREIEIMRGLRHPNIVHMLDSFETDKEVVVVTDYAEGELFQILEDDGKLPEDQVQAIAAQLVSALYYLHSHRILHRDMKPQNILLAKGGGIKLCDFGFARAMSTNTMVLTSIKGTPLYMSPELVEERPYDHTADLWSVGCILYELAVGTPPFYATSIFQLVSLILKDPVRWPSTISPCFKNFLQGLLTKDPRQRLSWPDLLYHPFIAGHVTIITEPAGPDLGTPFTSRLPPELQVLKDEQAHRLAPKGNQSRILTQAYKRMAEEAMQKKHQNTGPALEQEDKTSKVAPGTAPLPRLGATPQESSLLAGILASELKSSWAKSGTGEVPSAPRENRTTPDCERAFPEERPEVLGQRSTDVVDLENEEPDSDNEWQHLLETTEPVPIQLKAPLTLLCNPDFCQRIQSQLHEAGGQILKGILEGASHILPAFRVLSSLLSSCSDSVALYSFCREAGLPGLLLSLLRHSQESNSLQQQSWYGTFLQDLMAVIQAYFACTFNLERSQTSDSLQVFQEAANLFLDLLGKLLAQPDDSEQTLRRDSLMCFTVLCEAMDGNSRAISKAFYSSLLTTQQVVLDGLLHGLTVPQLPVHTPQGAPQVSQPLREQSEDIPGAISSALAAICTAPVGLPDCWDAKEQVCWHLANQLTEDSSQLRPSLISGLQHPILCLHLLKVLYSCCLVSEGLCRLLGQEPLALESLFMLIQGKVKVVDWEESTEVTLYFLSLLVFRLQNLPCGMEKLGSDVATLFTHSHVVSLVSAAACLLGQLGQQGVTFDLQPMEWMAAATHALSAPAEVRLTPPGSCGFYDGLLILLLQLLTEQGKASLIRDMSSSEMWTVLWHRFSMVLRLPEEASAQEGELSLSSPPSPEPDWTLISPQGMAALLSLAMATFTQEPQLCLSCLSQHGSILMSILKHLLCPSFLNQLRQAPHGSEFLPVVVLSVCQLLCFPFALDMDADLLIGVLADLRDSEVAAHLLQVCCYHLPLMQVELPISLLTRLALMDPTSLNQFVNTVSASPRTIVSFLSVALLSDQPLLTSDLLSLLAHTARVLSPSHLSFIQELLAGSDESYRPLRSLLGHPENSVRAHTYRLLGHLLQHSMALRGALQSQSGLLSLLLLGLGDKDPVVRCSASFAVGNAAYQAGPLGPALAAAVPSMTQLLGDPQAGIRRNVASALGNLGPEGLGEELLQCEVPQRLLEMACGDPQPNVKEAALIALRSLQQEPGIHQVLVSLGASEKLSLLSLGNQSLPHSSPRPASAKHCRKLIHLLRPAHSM

Molecule `COc1cc2c(-c3cnc(-c4ccc[nH]4)o3)c[nH]c2cc1Br` has a Kd [1] of 2700 nM, an Activity [2] of 100% and an Activity [3] of 100%. The Activity [4] was 100%, the Activity [5] was 56% and the IC50 (HepG2) was 3000 nM. The inhibition [6] was “Active”, the IC50 (MDA-MB-231) was over 30 µM and the Activity [7] was 95%. For the same molecule, the Fu [8] was 0.3%, the Activity [9] was 2.9% and the Activity [10] was 0%. The IC50 (JIMT-1) was 4.17 µM, the Activity (PBMC) was “Non-Toxic” and the Activity [11] was 7%. The Activity [12] was 0%, the Activity (Aurora kinase B) was 50% and the Activity [13] was 46%. It also gave an LC50 at 72 h [14] of 1400 nM, a survival at 72 h, 14 µM [15] of 5% and an Activity [16] of 100%. The IC50 (BT-20) was over 30 µM, the Kd [17] was 1800 nM and the remaining at 1 h, 5 µM [18] was 83%. It also gave an Activity [19] of 75%.

Molecule `COc1cc(Br)cc2[nH]cc(-c3cnc(-c4ccc[nH]4)o3)c12` has an Activity [20] of 7%.
